Laboratory results from paper PMC8658804, “Small Molecule CD38 Inhibitors: Synthesis of 8-Amino-N1-Inosine 5′-Monophosphate, Analogues and Early Structure-Activity Relationship” (Molecules (Basel, Switzerland), 2021).
“Also recorded” adds a separate entry of the source. Where two headings read alike, the source gives them in different places.

What was measured:
[1] = molecular target: T1, shCD38 (CD38 catalytic domain) (Homo sapiens, UniProt P28907); test: Ligand hydrolysis by high concentrations of shCD38, monitored by RP-HPLC; assay type: biochemical; details: 1 mM ligand, 4 mg/mL shCD38
T1 construct: high concentrations of CD38 catalytic domain (shCD38) present in crystallography media
T1 sequence (P28907 43-300 limits assumed): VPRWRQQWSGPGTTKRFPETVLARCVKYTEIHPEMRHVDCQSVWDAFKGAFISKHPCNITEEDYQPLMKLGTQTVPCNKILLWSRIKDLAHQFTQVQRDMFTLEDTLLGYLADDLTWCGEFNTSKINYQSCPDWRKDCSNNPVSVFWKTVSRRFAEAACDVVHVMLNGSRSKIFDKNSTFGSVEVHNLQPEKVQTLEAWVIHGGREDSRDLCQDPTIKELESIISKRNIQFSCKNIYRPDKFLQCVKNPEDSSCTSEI
Experimental: Indeed, 8-NH2-N9-butyl-cIDPR (6, Figure 2) was captured as the hydrolyzed product in the crystal structure with shCD38. […] Incubation of 11, 8-NH2-N1-IMP (1 mM final concentration) with 4 mg/mL shCD38 was monitored using RP-HPLC. The peak corresponding to 8-NH2-N1-IMP (RT = 10.5 min) reduced in intensity over time, alongside the appearance of a new peak (RT = 2.0 min) that was characteristic of an 8-amino substituted hypoxanthine analog (See Supplementary Information, Figure S1).
HPLC studies were carried out as previously described.[36] Briefly, the solution containing shCD38 was adjusted to the desired concentration using Tris-HCl buffer (20 mM, pH 8) and 50 μL was added to the inhibitor (0.05 μmole) in an Eppendorf tube at room temperature. At a given time point, a sample of 5 μL was removed and diluted with 95 μL MilliQ water. 10 μL Of this sample was injected directly into the analytical HPLC system (see General Experimental), eluting at 1 mL/min with an isocratic ion-pair buffer: 0.17% (m/v) cetrimide and 45% (v/v) phosphate buffer (pH 6.4) in MeOH.

CD38 [2] = molecular target: T2, CD38 (Homo sapiens, UniProt P28907); details: N1-IMP fragments and 8-NH2-N1-cIDPR from earlier work; read-out: IC50, inhibition of CD38-catalyzed cADPR hydrolysis; cited from earlier work
T2 construct: incubating 1 mM cADPR with 2 mg/mL of CD38 for 10 min
T2 sequence (P28907 1-300): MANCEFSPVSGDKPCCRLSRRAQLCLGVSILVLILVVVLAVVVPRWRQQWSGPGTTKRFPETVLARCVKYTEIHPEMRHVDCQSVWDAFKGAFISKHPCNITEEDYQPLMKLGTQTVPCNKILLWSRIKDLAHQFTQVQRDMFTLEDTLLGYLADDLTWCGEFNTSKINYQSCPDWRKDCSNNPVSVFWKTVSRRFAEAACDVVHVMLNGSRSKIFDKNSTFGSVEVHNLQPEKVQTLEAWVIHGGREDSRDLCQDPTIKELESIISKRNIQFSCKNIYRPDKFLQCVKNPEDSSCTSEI

T-cells = tested on: T-cells; parameters: method as in PMID 12932045, PMID 16967053; details: compared with cADPR; cited from earlier work
CD38 [3] = molecular target: T2, CD38; test: Inhibition of CD38-catalyzed cADPR hydrolysis (fluorimetric cycling assay); assay type: biochemical; details: for IC50 / inhibitory activity (IC50) of CD38-mediated cADPR hydrolysis: 1 mM cADPR, 2 mg/mL CD38, 10 min, pH 4.5, IC50 values >1000 μM are approximate; for IC50: read-out: inhibitory activity (IC50) of CD38-mediated cADPR hydrolysis
Experimental: The inhibition of cADPR hydrolysis by various concentrations of inhibitor (0–1 mM) was determined by incubating 1 mM cADPR with 2 mg/mL of CD38 for 10 min at 20–24uC in 25 mM sodium acetate, pH 4.5. The reaction was stopped by the addition of 150 mM HCl. The precipitated protein was filtered, and the pH was neutralized with Tris base. After diluting the mixture 20-fold, the concentration of the unhydrolyzed cADPR present in the diluted reaction mixture was assayed by the fluorimetric cycling assay as previously described.[46]

[4] = Solubility in the assay medium; assay type: physicochemical; details: CD38 assay medium

IC50 (CD38 [3])	inhibitory activity on CD38-mediated cADPR hydrolysis, in words (CD38 [3])	SMILES	also measured
		Nc1nc2c(=O)n([C@@H]3O[C@H](COP(=O)(O)O)[C@@H](O)[C@H]3O)cnc2[nH]1 [Compound 11, N1-(5′-O-Phosphoryl-β-D-ribofuranosyl)-8-aminohypoxanthine]	hydrolysis of ligand by shCD38 (RP-HPLC) [1]: hydrolyzed more rapidly than cIDPR (2), but more slowly than 8-NH2-N9-butyl-cIDPR (6); also recorded: hydrolyzed at the N1-ribosyl bond; hydrolysis of ligand by shCD38 (RP-HPLC) ([1]; listed as 8-NH2-N1-IMP): cleaved at high CD38 concentrations; IC50 (CD38 [2]): 7.6 ± 0.2 µM
		O=c1c2ncn3c2ncn1[C@@H]1O[C@H](COP(=O)(O)OP(=O)(O)OC[C@H]2O[C@@H]3[C@H](O)[C@@H]2O)[C@@H](O)[C@H]1O [Compound 2, cyclic inosine 5′-diphosphoribose]	Ca2+ release (T-cells): almost indistinguishably to that induced by cADPR
~3300 µM		Nc1nc2c(=O)n([C@@H]3O[C@H](CO)[C@@H](O)[C@H]3O)cnc2n1CCCCO [Compound 21, N1-(β-D-Ribofuranosyl)-N9-(4-hydroxybutyl)-8-aminohypoxanthine]	
		O=c1c2nc(Br)[nH]c2ncn1[C@@H]1O[C@H](COP(=O)(O)O)[C@@H](O)[C@H]1O [Compound 10, N1-(5′-O-Phosphoryl-β-D-ribofuranosyl)-8-bromohypoxanthine]	IC50 (CD38 [2]): 201 ± 41 µM
201 µM		[N-]=[N+]=Nc1nc2c(=O)n([C@@H]3O[C@H](COP(=O)(O)O)[C@@H](O)[C@H]3O)cnc2n1CCCCO [Compound 24, N1-(5′-O-Phosphoryl-β-D-ribofuranosyl)-N9-(4-hydroxybutyl)-8-azidohypoxanthine]	
757 µM		O=c1c2ncn(CCCCO)c2ncn1[C@@H]1O[C@H](COP(=O)(O)O)[C@@H](O)[C@H]1O [Compound 23, N1-(5′-O-Phosphoryl-β-D-ribofuranosyl)-N9-(4-hydroxybutyl)hypoxanthine]	
460 µM		O=c1c2nc[nH]c2ncn1[C@H]1O[C@@H](COP(=O)(O)O)[C@H](O)[C@@H]1O [Compound 27, N1-(5′-O-Phosphoryl-β-L-ribofuranosyl)-hypoxanthine]	fold reduction in activity compared to parent / D-ribose N1-IMP counterpart (CD38 [3]; ratio of IC50 values): 30 fold
		O=c1c2nc(Br)n(CCCCO)c2ncn1[C@@H]1O[C@H](CO)[C@@H](O)[C@H]1O [Compound 18, N1-(β-D-Ribofuranosyl)-N9-(4-hydroxybutyl)-8-bromohypoxanthine]	solubility in the assay medium [4]: insoluble in the assay medium
~2300 µM		O=c1c2ncn(CCCCO)c2ncn1[C@@H]1O[C@H](CO)[C@@H](O)[C@H]1O [Compound 19, N1-(β-D-Ribofuranosyl)-N9-(4-hydroxybutyl)-hypoxanthine]	
~7500 µM	low mM inhibitory activity	O=c1c2ncn([C@@H]3O[C@H](CO)[C@@H](O)[C@H]3O)c2ncn1[C@@H]1O[C@H](CO)[C@@H](O)[C@H]1O [Compound 15, N1-(β-D-Ribofuranosyl)-inosine]	
230 ± 9 µM		O=c1c2nc(Br)[nH]c2ncn1[C@H]1O[C@@H](COP(=O)(O)O)[C@H](O)[C@@H]1O [Compound 26, N1-(5′-O-Phosphoryl-β-L-ribofuranosyl)-8-bromohypoxanthine]	
~9500 µM		[N-]=[N+]=Nc1nc2c(=O)n([C@@H]3O[C@H](CO)[C@@H](O)[C@H]3O)cnc2n1CCCCO [Compound 20, N1-(β-D-Ribofuranosyl)-N9-(4-hydroxybutyl)-8-azidohypoxanthine]	
	no activity	O=c1c2nc(Br)n([C@@H]3O[C@H](CO)[C@@H](O)[C@H]3O)c2ncn1[C@@H]1O[C@H](CO)[C@@H](O)[C@H]1O [Compound 14, N1-(β-D-Ribofuranosyl)-8-bromoinosine]	inhibitory activity (IC50) of CD38-mediated cADPR hydrolysis (CD38 [3]): No activity
~7600 µM	low mM inhibitory activity	Nc1nc2c(=O)n([C@@H]3O[C@H](CO)[C@@H](O)[C@H]3O)cnc2n1[C@@H]1O[C@H](CO)[C@@H](O)[C@H]1O [Compound 17, N1-(β-D-ribofuranosyl)-8-aminoinosine]	
		Nc1nc2c(=O)n3cnc2n1[C@@H]1O[C@H](COP(=O)(O)OP(=O)(O)OC[C@H]2O[C@@H]3[C@H](O)[C@@H]2O)[C@@H](O)[C@H]1O [Compound 4, 8-NH2-N1-cIDPR, reference compound]	IC50 (CD38 [2]): 56 µM
		O=c1c2nc[nH]c2ncn1[C@@H]1O[C@H](COP(=O)(O)O)[C@@H](O)[C@H]1O [Compound 9, N1-Inosine 5′-monophosphate]	IC50 (CD38 [2]): 14 ± 5 µM
	no activity	[N-]=[N+]=Nc1nc2c(=O)n([C@@H]3O[C@H](CO)[C@@H](O)[C@H]3O)cnc2n1[C@@H]1O[C@H](CO)[C@@H](O)[C@H]1O [Compound 16, N1-(β-D-ribofuranosyl)-8-azidoinosine]	inhibitory activity (IC50) of CD38-mediated cADPR hydrolysis (CD38 [3]): No activity
332 µM		Nc1nc2c(=O)n([C@@H]3O[C@H](COP(=O)(O)O)[C@@H](O)[C@H]3O)cnc2n1CCCCO [Compound 25, N1-(5′-O-Phosphoryl-β-D-ribofuranosyl)-N9-(4-hydroxybutyl)-8-aminohypoxanthine]	

SMILES	IC50 (CD38 [3])	inhibitory activity on CD38-mediated cADPR hydrolysis, in words (CD38 [3])	also measured
NS(=O)(=O)OC[C@H]1O[C@@H](n2cnc3[nH]c(Cl)nc3c2=O)[C@H](O)[C@@H]1O [Compound 28, N1-(5′-O-sulfonamide-β-D-ribofuranosyl)-8-chlorohypoxanthine]		neither of the two analogues (28, 29) showed any activity	inhibitory activity (IC50) of CD38-mediated cADPR hydrolysis (CD38 [3]): No activity
NS(=O)(=O)OC[C@H]1O[C@@H](n2cnc3[nH]cnc3c2=O)[C@H](O)[C@@H]1O [Compound 29, N1-(5′-O-sulfonamide-β-D-ribofuranosyl)-hypoxanthine]		neither of the two analogues (28, 29) showed any activity	inhibitory activity (IC50) of CD38-mediated cADPR hydrolysis (CD38 [3]): No activity
